Results on four compounds are retold here after patent US4202891A, “15-Oxygenated sterol compounds and the use of such compounds to inhibit the biosynthesis of sterols” (priority 1977, dated 1980).

SMILES strings stand for the structures. Read-outs that look alike come from different tables or passages of the source. A value given as a limit tells only on which side of the number the result lay.

One data set concerns serum cholesterol. Put plainly: Effect on serum cholesterol levels in rats, daily subcutaneous injection (Examples 41, 42). Conditions: for Serum Cholesterol (Mean ± S.E.M.): 5 mg s.c. once a day in triolein; for decrease in serum cholesterol levels (in words) / % Reduction of serum cholesterol (Mean ± S.E.M.): 5 mg s.c. once a day; for decrease in serum cholesterol levels (in words): after 3, 6, 9, 12 days vs same rats before, after 12 days vs triolein; for % Reduction of serum cholesterol (Mean ± S.E.M.): from initial levels in same rats. The format is in vivo, rat (male, Sprague-Dawley). On the procedure:
Male rats of the Sprague-Dawley strain were fed Purina rat chow ad libidum. The rats were maintained on a light (7 A.M.-6 P.M.) -dark (6 P.M.-7 A.M.) cycle throughout the study and for a period of at least 4 days prior to the initiation of the study.
(§1) 3β-Hexadecanoyloxy-5α-cholest-8(14)-en-15-one (5 mg; dissolved in 0.25 ml of triolein), hereafter referred to as the "palmitate ester", or 3β-hemisuccinoyloxy-5α-cholest-8(14)-en-15-one (5 mg; suspended in 0.25 ml of triolein through the use of a tight-fitting all-glass homogenizer), hereafter referred to as the "hemisuccinate ester", were administered subcutaneously once a day at about 12 P.M. to each of eight and six rats, respectively. Control animals (8) received daily injections of triolein (0.25 ml).
Blood samples were taken from the rats periodically and the serum cholesterol concentrations measured, in duplicate, by the method of Abell et al., J. Biol. Chem., Vol. 195, pp. 357-366 ([…]).
Following generally the procedure described in Example 41, 3β-Ethoxy-14α-ethyl-5α-cholest-7-en-15-one (5 mg) in triolein (0.25 ml) was administered subcutaneously once a day to each of eight rats. Control animals (8) received daily injections of triolein (0.25 ml).
Similarly, 5α-cholest-8(14)-en-3β-ol-15-one (2mg) in (0.2 ml) olive oil or 5.0 mg in 0.5 ml of olive oil) was administered subcutaneously once a day to each of a group of rats. The 2 mg dose was administered to 12 rats, while a like number of rats received daily injections of 0.2 ml olive oil. 5 mg doses were administered to each of 6 rats, while 6 control animals received daily injections of 0.5 ml olive oil. The rats used in this study initially weighed between 110 and 190 grams.

The format of data set [1] is in vivo, rat (male, Sprague-Dawley). Conditions: for average percentage weight gain (mean±S.E.M.): 5 mg s.c. once a day, total experimental period; for differences in growth versus vehicle-treated rats (in words): daily s.c. On the procedure: as §1
The average percentage weight gain over the total experimental period in the palmitate, hemisuccinate, and triolein groups were (mean±S.E.M.) 40.5±4.6, 40.7±1.6, and 43.6±3.3, respectively.

The subject of the next data set is liver. The format is in vivo, rat (male, Sprague-Dawley). The settings on record: 5 mg s.c. once a day. On the procedure:
as §1
The mean values of the liver weights of the triolein-treated rats (9.6 g±0.08, S.E.M.). S.E. differed from those of the palmitate ester-treated rats (11.4 g±0.5, S.E.M.). Similarly, the mean value of the liver weights, when expressed as a percentage of the total body weight, of the triolein-treated rats (4.09%±0.08, S.E.M.) differed from the mean value for the palmitate ester-treated rats (4.53%±0.09, S.E.M.).

In data set [2] the test system is sterol biosynthesis in L cells. The data set can be described thus: Inhibition of sterol synthesis from [1-14C]acetate in L cell cultures. The format is cell-based. Conditions: Mus musculus; L cell cultures; read-out: Concentrations Required for 50% Inhibition of Sterol Synthesis. On the procedure: The effect of various 15-oxygenated sterols on sterol biosynthesis in L cells and in primary cultures of mouse liver cells was tested essentially under conditions described in detail previously [A. A. Kandutsch and H. W. Chen, J. Biol. Chem., Vol. 248, pp. 8408-8417 (1973) and A. A. Kandutsch and H. W. Chen, J. Biol. Chem., Vol. 249, pp. 6057-6061 (1974`)].
(§2) The primary liver cell cultures were prepared from 16-day-old (C57BL/6J fetuses and grown in chemically defined medium (serum-free) as described in the above cited publications. The L cells, a subline of NCTC clone 929 mouse fibroblasts, were grown in chemically defined medium (serum-free) as described in the publications. These L cells are transformed fibroblasts which are regarded as malignant since they will grow as tumors if injected into the mouse strain from which they were initially obtained.
(§3) The preparation of steroid-containing media, procedures for assays of the conversion of [1-^14 C]acetate into digitonin-precipitable sterols, fatty acids, and CO2 and methods for the measurement of DNA, protein, and HMG-CoA reductase were as described in the published articles. L cell cultures were preincubated with the 15-oxygenated sterols and their derivatives for 4 hours, then [1-^14 C]acetate was added at a concentration of 4 μmoles per ml (4 μCi per ml); or the L cell cultures were incubated for 5 hours with the 15-oxygenated sterols before they were harvested for determination of microsomal HMG-CoA reductase activity.
The test compounds were tested over a range of at least 4 concentrations and the assay was repeated until the concentration of test compound required to produce 50% inhibition was located on the steeply declining portion of an activity vs. concentration plot. To diminish any possible effects of generalized differences in cellular metabolism, the rates of sterol synthesis from [1-^14 C]acetate were calculated as the ratio of [^14 C]sterols to [^14 C]fatty acids as described in the two cited articles by Kandutsch and Chen.

The next data set has as its system HMG-CoA reductase. Put plainly: Reduction of the activity of HMG-CoA reductase in L cell cultures. The format is cell-based, mouse. Conditions: read-out: Concentrations Required for 50% Reduction of the Activity of HMG-CoA Reductase. On the procedure: as §2, §3
A number of the 15-oxygenated sterols have also been tested with respect to their effects on the activity and/or levels of the enzyme HMG-CoA reductase (3-hydroxy-3-methylglutaryl coenzyme A reductase) in the L cells and in the liver cells. As noted previously, this enzyme catalyzes the reduction of 3-hydroxy-3-methylglutaryl coenzyme A to yield mevalonic acid, an essential intermediate in the biosynthesis of sterols and of a number of other essential compounds in cells.
Using the technique described by Kandutsch and Chen in the article cited in the previous example, the concentrations of various 15-oxygenated sterols required to reduce the levels of activity of HMG-CoA reductase by 50% was determined in the cells of the L cells in culture and of the primary cultures of liver cells.

For data set [3], the system named is sterol biosynthesis in L cells. The settings on record: cited from earlier work; for inhibitory action on the synthesis of sterols (in words): L cells in culture.
The subject of data set [4] is sterol biosynthesis in primary cultures of mouse liver cells. The settings on record: cited from earlier work; for inhibitory action on the synthesis of sterols (in words): primary cultures of mouse liver cells.
The next data set concerns plasma cholesterol. The settings on record: cited from earlier work.

For `CC(C)CCC[C@@H](C)[C@H]1CC(=O)C2=C3CC[C@H]4C[C@@H](OC(=O)CCC(=O)O)CC[C@]4(C)[C@H]3CC[C@@]21C` [3β-hemisuccinoyloxy-5α-cholest-8(14)-en-15-one], the “Serum Cholesterol (Mean ± S.E.M.)” value with serum cholesterol (day 0 (initial)) came to 89.1 ± 2.6 mg per 100 ml; with serum cholesterol (day 3), 78.6 ± 2.4 mg per 100 ml; with serum cholesterol (day 6) it was 72.5 ± 1.9 mg per 100 ml; in the data set with serum cholesterol (day 9), 72.3 ± 1.6 mg per 100 ml; in the data set on serum cholesterol (day 12), 58.8 ± 2.8 mg per 100 ml. Further, in the data set with serum cholesterol, the “decrease in serum cholesterol levels (in words)” value is “significant decreases in serum cholesterol levels”. Also, the “% Reduction of serum cholesterol (Mean ± S.E.M.)” value in the data set on serum cholesterol (day 3) is given as 13.5 ± 4.4%; with serum cholesterol (day 6), 18.1 ± 4.1%; in the data set with serum cholesterol (day 9), 18.4 ± 3.5%; with serum cholesterol (day 12), 33.9 ± 2.9%. Also, the “average percentage weight gain (mean±S.E.M.)” value in data set [1] turned out to be 40.7±1.6%. The “differences in growth versus vehicle-treated rats (in words)” value in data set [1] is reported as “no significant differences in the growth”. Besides, the “difference of liver weights from triolein-treated rats (in words)” value in the data set on liver is recorded as “no significant difference”. In addition, in the data set with liver, the “liver weight (mean, S.E.M.)” value amounted to 10.6 g. Moreover, in the data set with liver, the “liver weight as percentage of total body weight (mean, S.E.M.)” value amounted to 4.36%. The values for the IC50 (in data set [2]; in the data set with HMG-CoA reductase) were 3.2 µM and 3000 nM, respectively.
In the case of `CCCCCCCCCCCCCCCC(=O)O[C@H]1CC[C@@]2(C)[C@@H](CCC3=C4C(=O)C[C@H]([C@H](C)CCCC(C)C)[C@@]4(C)CC[C@@H]32)C1` [3β-hexadecanoyloxy-5α-cholest-8(14)-en-15-one], the “Serum Cholesterol (Mean ± S.E.M.)” value in the data set with serum cholesterol (day 0 (initial)) is 91.6 ± 2.6 mg per 100 ml; in the data set on serum cholesterol (day 3), 74.9 ± 3.9 mg per 100 ml; with serum cholesterol (day 6), 75.8 ± 5.0 mg per 100 ml; in the data set on serum cholesterol (day 9) it was 77.9 ± 5.9 mg per 100 ml; with serum cholesterol (day 12), 61.4 ± 3.9 mg per 100 ml. For the same compound, the “decrease in serum cholesterol levels (in words)” value in the data set with serum cholesterol was “significant decreases in serum cholesterol levels”. Moreover, the “% Reduction of serum cholesterol (Mean ± S.E.M.)” value with serum cholesterol (day 3) is 18.2 ± 3.3%; in the data set on serum cholesterol (day 6), 15.7 ± 4.4%; in the data set with serum cholesterol (day 9), 14.5 ± 2.9%; with serum cholesterol (day 12), 33.2 ± 2.7%. Besides, the “average percentage weight gain (mean±S.E.M.)” value in data set [1] worked out at 40.5±4.6%. Further, the “differences in growth versus vehicle-treated rats (in words)” value in data set [1] is “no significant differences in the growth”. Further, in the data set with liver, the “difference of liver weights from triolein-treated rats (in words)” value is “differed”. Also, in the data set on liver, the “liver weight (mean, S.E.M.)” value was 11.4 g. The “liver weight as percentage of total body weight (mean, S.E.M.)” value in the data set with liver is 4.53%. Moreover, the IC50 in data set [2] is over 16 µM.
For the compound `CC(C)CCC[C@@H](C)[C@H]1CC[C@H]2[C@@H]3C(=O)C=C4C[C@@H](O)CC[C@]4(C)[C@H]3CC[C@]12C` [7-ketocholesterol], the “inhibitory action on the synthesis of sterols (in words)” value in data set [3] and in data set [4] was “strong inhibitory action” each time. For the same compound, in the data set on plasma cholesterol, the “plasma cholesterol-lowering effect in mice (in words)” value is recorded as “no significant plasma cholesterol-lowering effect in mice”.
As to `C[C@H](CCCC(C)(C)O)[C@H]1CC[C@H]2[C@@H]3CC=C4C[C@@H](O)CC[C@]4(C)[C@H]3CC[C@]12C` [Cholest-5-en-3β,25-diol], the IC50 in data set [3] (L cell cultures, as reported by Kandutsch and Chen, read-out: Concentrations Required for 50% Inhibition of Sterol Synthesis) was 70 nM; in data set [4] (liver cells, read-out: lowest previously reported concentration for 50% inhibition of sterol synthesis), 1000 nM; in data set [4] (primary cultures of liver cells, as reported by Kandutsch and Chen, read-out: Concentrations Required for 50% Inhibition of Sterol Synthesis), 1000 nM. In addition, the “inhibitory action on the synthesis of sterols (in words)” value in data set [3] and in data set [4] was “strong inhibitory action” each time. Moreover, in the data set with plasma cholesterol, the “plasma cholesterol-lowering effect in mice (in words)” value is listed as “no significant plasma cholesterol-lowering effect in mice”.
